Tests used:
S180 = assay: Growth of transplanted tumor, S180 (tumor weight); format: in vivo, mice; conditions: 20 mg/kg i.p. from second day, tumor weight on 12th day
Procedure: (§1) Male mice, weight 20-22 g, were used in the experiment. 1×10^7 tumor cells were injected to mouse and PK-HHT-NP injected intraperitoneally began second day. All mice were sacrificed on the 12th days, isolated the tumor and weighed and calculated the inhibition rate of tumor weight.
(§2) Male mice, weight 20-22 g, were used in the experiment. 1×10^7 tumor cells were injected to mouse and CUR and PK-CUR-NP injected intraperitoneally began second day. All mice were sacrificed on the 12th days, isolated the tumor and weighed and calculated the inhibition rate of tumor weight.
(§3) Male mice, weight 20-22 g, were used in the experiment. 1×10^7 tumor cells were injected to mouse and ELE injected intraperitoneally began second day. All mice were sacrificed on the 12th days, isolated the tumor and weighed and calculated the inhibition rate of tumor weight.
(§4) Male mice, weight 20-22 g, were used in the experiment. 1×10^7 tumor cells were injected to mouse and CPT injected intraperitoneally began second day. All mice were sacrificed on the 12th days, isolated the tumor and weighed and calculated the inhibition rate of tumor weight.

Walker 256 = assay: Growth of transplanted tumor, Walker 256 (tumor weight); format: in vivo, mice; conditions: 20 mg/kg i.p. from second day, tumor weight on 12th day
Procedure: as §1, §2, §3, §4

HL-60 = assay: Inhibition of tumor cell proliferation, HL-60; format: cell-based, human; conditions: for Inhibition (%): 72 hours
Procedure: Human leukemia cells (HL-60) were grown in RPMI Medium 1640 supplemented with 10% (v/v) heat-inactivated FBS (56° C. for 30 min) at 37° C. in a humidified 95% air/5% CO2 atmosphere. Cells were seeded at a level of 2×10^5 cells/ml. Cells were allowed to attain a maximum density of 1.2×10^6 cells/ml before being passed by dilution into fresh medium to a concentration of 2×10^5 cells/ml.
Cell lines were routinely cultured in the RPMI1640 medium supplemented 20% fetal calf serum. The experiment was carried out in 96 microplate, each well had 5×10^5 cells and given desired concentration of drug (1 μg/ml). Then the plate was incubated at 37° C. in an atmosphere of humidified air enriched with 5 percent carbon dioxide for 72 hours. Inhibition percent rate of tumor cell proliferation was obtained according to the bellow formula. [formula]
Human tumor cell lines: Hela leukemia HL-60, malignant melanocarcinoma B16, oral epidermoid carcinoma (KB), lung carcinoma (A549), breast carcinoma MCF-7, adenocarcinoma of stomach.
Animal tumor cell lines: Walker carcinoma, LLC-WRC-256, malignant melanoma (RMMI 1846), 3T3, and S-180 sarcoma (CCRF-180). All lines were routinely cultured in the RPMI1640 medium supplemented 20% fetal calf serum. The experiment was carried out in 96 microplate, each well had 5×10^5 cells and given desired concentration of 1 μg/ml (1×10^−6 g/ml) drug. Then the plate was incubated at 37° C. in an atmosphere of humidified air enriched with 5 percent carbon dioxide for 72 hours.
Inhibition percent rate of tumor cell proliferation was obtained according to the bellow formula. [formula] […]

L1210 = assay: Growth of transplanted tumor, L1210 (tumor weight); format: in vivo, mice; conditions: 20 mg/kg i.p. from second day, tumor weight on 12th day
Procedure: as §1, §2, §3, §4

[1] = system: Human promyelocytic leukemia cells (HL-60); assay: Induced differentiation of HL-60 cells (NBT reduction); format: cell-based; conditions: 0.1 μg/ml (10×10^−7 g/ml)
Procedure: (§5) Human promyelocytic leukemia cells (HL-60) were grown in RPMI Medium 1640 supplemented with 10% (v/v) heat-inactivated FBS (56° C. for 30 min) at 37° C. in a humidified 95% air/5% CO2 atmosphere. Cells were seeded at a level of 2×10^5 cells/ml. Cells were allowed to attain a maximum density of 1.2×10^6 cells/ml before being passed by dilution into fresh medium to a concentration of 2×10^5 cells/ml. Differentiation was induced in HL-60 cells by treatment with 0.1 μg/ml ([…]) of CUR or PK-CUR-NP. Cell differentiation was measured by the ability of cells to reduce NBT.
as §5, with “ELE” for “CUR”, “PK-ELE-NP.” for “PK-CUR-NP.”, “NBT. Increasing NBT % means that cancer cells are differentiation.” for “NBT.”
as §5, with “CPT” for “CUR”, “PK-CPT-NP.” for “PK-CUR-NP.”, “NBT. Increasing NBT % means that cancer cells are differentiation.” for “NBT.”

Subacute toxicity test = format: in vivo; conditions: 50 times the clinical dose, continually for two months

Compound	Inhibition (%) of transplanted tumor (S180) [%]	Inhibition (%) of transplanted tumor (Walker 256) [%]	inhibition at 1 µg/mL (HL-60; Homo sapiens, HL-60, 72 h, 1 μg/ml) [%]	inhibition at 1 µg/mL (HL-60; Homo sapiens, HL-60, 72 h, Example 23, 1 μg/ml, NP dose equivalent of free HHT) [%]	Inhibition (%) of transplanted tumor (L1210) [%]	inhibition at 0.05 µg/mL (HL-60; Homo sapiens, HL-60, 72 h, 50 ng/ml) [%]	NBT % (percentage of cells capable of reducing NBT) [1] [%]	subacute toxicity: side effects (Subacute toxicity test)	Inhibition (%) (HL-60; 50 ng/ml)
COC(=O)C[C@](O)(CCCC(C)(C)O)C(=O)O[C@@H]1C(OC)=C[C@]23CCCN2CCc2cc4c(cc2[C@H]13)OCO4 [HHT, Homoharringtonine]	76 ± 8	83 ± 9	70.8 ± 9	70.5 ± 8	87 ± 9	–	–	–	–
CC[C@@]1(O)C(=O)OCc2c1cc1n(c2=O)Cc2cc3ccccc3nc2-1 [CPT, Camptothecin]	63.2 ± 12.1	71.8 ± 10.4	–	–	68.5 ± 9.8	70.8 ± 11.2	65.8 ± 9.1	no side effects had been observed	–
Eelemene	67.57 ± 9.1	60.8 ± 8.9	–	–	71.8 ± 9.5	–	69.5 ± 10.1	no side effects had been observed	78.9 ± 12.5
C=C1C[C@@]2(O)O[C@@]3(C[C@H]2C(C)C)[C@@H](C)CC[C@@H]13 [CUR, Curcumol]	63.7 ± 7.3	59.8 ± 8.5	–	–	70.8 ± 9.0	–	68.5 ± 8.5	no side effects had been observed	76.8 ± 12.8

— patent US20040192641A1, “Special preparation of anticancer drugs made by novel nanotechnology” (priority 2003, published 2004)
